Laboratory results: paper PMC10733197, “Utilization of Rosuvastatin and Endogenous Biomarkers in Evaluating the Impact of Ritlecitinib on BCRP, OATP1B1, and OAT3 Transporter Activity” (Pharmaceutical Research, 2023)
Read-outs that look alike come from different tables or passages of the source. Values belong to the molecule of their own block, whether it stands above or below them.

How the values were obtained:
[1] = target: T1, OAT3 (Homo sapiens, UniProt Q8TCC7); details: estrone 3-sulfate 0.1 µM; HEK293; existing in vitro data; cited from earlier work
T1 construct: expressed in transfected cells; host or cells: HEK293
T1 sequence (Q8TCC7 1-542): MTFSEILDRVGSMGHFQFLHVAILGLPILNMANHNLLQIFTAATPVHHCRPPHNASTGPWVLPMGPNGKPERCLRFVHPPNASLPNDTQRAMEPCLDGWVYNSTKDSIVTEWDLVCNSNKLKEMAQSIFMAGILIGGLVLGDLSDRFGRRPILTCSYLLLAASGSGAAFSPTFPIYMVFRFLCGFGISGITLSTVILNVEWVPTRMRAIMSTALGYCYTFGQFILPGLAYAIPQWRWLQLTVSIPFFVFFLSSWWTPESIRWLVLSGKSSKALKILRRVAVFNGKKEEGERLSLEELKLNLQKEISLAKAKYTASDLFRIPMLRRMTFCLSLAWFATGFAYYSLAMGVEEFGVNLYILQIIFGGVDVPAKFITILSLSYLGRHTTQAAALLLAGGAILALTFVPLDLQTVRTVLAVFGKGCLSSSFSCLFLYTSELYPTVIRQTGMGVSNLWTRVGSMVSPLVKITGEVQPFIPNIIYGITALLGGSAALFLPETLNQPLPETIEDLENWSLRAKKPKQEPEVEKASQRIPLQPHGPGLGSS

[2] = cited from earlier work
[3] = system: OAT1/3; details: ref 1 (Rodrigues AD 2023), cited from earlier work
[4] = target: T2, OAT1 (Homo sapiens, UniProt Q4U2R8); details: cited from earlier work
T2 sequence (Q4U2R8 1-563): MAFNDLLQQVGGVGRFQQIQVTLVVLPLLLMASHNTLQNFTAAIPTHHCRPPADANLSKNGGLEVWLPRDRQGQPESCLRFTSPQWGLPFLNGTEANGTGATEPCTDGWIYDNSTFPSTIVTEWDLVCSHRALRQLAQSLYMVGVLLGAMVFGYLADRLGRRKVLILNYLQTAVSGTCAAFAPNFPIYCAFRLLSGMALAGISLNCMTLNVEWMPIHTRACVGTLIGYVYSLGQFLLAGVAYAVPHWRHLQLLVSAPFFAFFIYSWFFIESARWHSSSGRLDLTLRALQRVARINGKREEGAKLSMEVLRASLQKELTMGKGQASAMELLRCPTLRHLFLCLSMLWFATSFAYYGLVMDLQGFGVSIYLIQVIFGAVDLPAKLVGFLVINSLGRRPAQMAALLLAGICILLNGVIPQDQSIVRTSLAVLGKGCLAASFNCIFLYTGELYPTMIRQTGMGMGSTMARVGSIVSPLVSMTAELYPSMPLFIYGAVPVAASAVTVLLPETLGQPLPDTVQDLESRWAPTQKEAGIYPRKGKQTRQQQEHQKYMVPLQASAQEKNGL

[5] = clinical; details: human, in vivo, 10 mg
Method: Blood and urine samples were collected at prespecified timepoints. […] Each participant emptied their bladder just prior to dosing. Plasma rosuvastatin was measured using a validated UPLC-MS/MS assay, in compliance with Pfizer standard operating procedures. Samples were thawed at room temperature and vortexed. […] Samples were then placed in a methanol/ dry ice bath for 5 min. […] Dry residues were reconstituted with 200 μL of reconstitution solution (mobile phase A). After vortexing, all tubes were centrifuged at 3000 rpm for 5 min at 4 °C, and 150 μL of the reconstituted samples were transferred into the deep round well microplates and sealed by aluminum foil at 165 °C. […] Mobile phase A was Milli-Q Type Water/methanol, ammonium acetate 2 mM and mobile phase B was acetonitrile. The monitored ion transitions were m/z 483.3 → 258.2; […] The validated rosuvastatin concentration calibration range was 20 to 25000 pg/mL. Urine rosuvastatin was measured using a validated HPLC-MS/MS assay, in compliance with Pfizer standard operating procedures. […] Mobile phase A was Milli-Q® type water/methanol, ammonium acetate 2 mM and mobile phase B was acetonitrile. The monitored ion transitions were m/z 483.3 → 258.2; […] The validated rosuvastatin concentration calibration range was 5 to 2000 ng/mL. […] Samples below the lower limit of quantitation were set to zero for the PK analysis. Actual sample collection times were used for the PK analysis. Natural log transformed area under the plasma concentration-time profile from time 0 extrapolated to infinity (AUCinf), maximum plasma concentration (Cmax), and apparent renal clearance (CLr) were analyzed using a mixed effect model with treatment as a fixed effect and participant as a random effect (SAS version 9.4; SAS Institute, Cary, NC, USA). […] Rosuvastatin alone was the reference treatment, while the rosuvastatin coadministered with ritlecitinib was the Test treatment.

[6] = system: OATP2B1; set-up: method as in PMID 27737931; details: rosuvastatin coadministered with ronacaleret, an OATP2B1 inhibitor; cited from earlier work
[7] = set-up: method as in PMID 14693307; details: cited from earlier work
[8] = Safety and tolerability in the clinical DDI study
Method: This was a Phase 1, 2-period fixed-sequence, multiple-dose, open-label study of the effect of ritlecitinib on the pharmacokinetics and renal clearance of a single, oral dose of rosuvastatin in healthy participants (Fig. 1). The safety and tolerability of rosuvastatin when coadministered with ritlecitinib was also evaluated.
In Period 1 on Day 1, following an overnight fast of at least 10 h, participants received a single oral administration of rosuvastatin 10 mg tablet. Period 1 was immediately followed by Period 2 with no washout. In Period 2 (coadministration), participants received oral ritlecitinib 200 mg once daily (QD) under non-fasting conditions for 7 days. On the morning of Day 8, a single dose of rosuvastatin 10 mg tablet was administered orally within approximately 5 min after administration of a ritlecitinib 200 mg dose under fasting conditions. On Days 9 and 10, participants continued to receive oral ritlecitinib 200 mg QD under non-fasting conditions.

[9] = rosuvastatin 10 mg single dose (without ritlecitinib) or ritlecitinib 200 mg QD, 12 healthy participants

SMILES: CCc1nc(N)nc(N)c1-c1ccc(Cl)cc1 [Pyrimethamine]
IC50 [1]: 16 µM
Cmax,u ([2]; inhibitor dose 10 mg): 40 nM
Cmax,u ([2]; inhibitor dose 25 mg): 110 nM
Cmax,u ([2]; inhibitor dose 75 mg): 370 nM
PDA AUC ratio Observed ([3]; inhibitor dose 10 mg): 0.7
PDA AUC ratio Observed ([3]; inhibitor dose 25 mg): 0.6
PDA AUC ratio Observed ([3]; inhibitor dose 75 mg): 0.6
IC50 [4]: 224 µM

AUC(0-inf) [5]: 43.9 ng·h/mL
CL renal [5]: 218 mL/min
CL/F [5]: 228.0 (44) L/hr
Cmax [5]: 4.5 ng/mL
Tmax [5]: 4.01 h
Vd/F [5]: 6020 L
half-life [5]: 19.2 ± 7.02 h
SMILES: CC(C)c1nc(N(C)S(C)(=O)=O)nc(-c2ccc(F)cc2)c1/C=C/[C@@H](O)C[C@@H](O)CC(=O)O [Rosuvastatin, rosuvastatin]
decrease in AUCinf exposure [6]: ~50%
excreted in urine [7]: ≤ 10%
TEAEs of moderate severity ([8]; back pain, single dose of rosuvastatin 10 mg): 1
number of treatment-emergent adverse events (TEAEs) [8, 9]: 4
participants with TEAEs [8, 9]: 4
TEAEs considered treatment-related by the investigator ([8]; rosuvastatin 10 mg single dose or ritlecitinib 200 mg QD): all of which were considered treatment-related
